Data set [1] can be described thus: Pharmacokinetic test in mice. It counts as in vivo, ICR mice. The note with it: mouse, plasma; for Vd: read-out: Vdss. Here is the method:
3.1 Experimental animals: Male ICR mice, 20-25 g, 6 mice/compound, purchased from Chengdu Dossy Experimental Animals Co., Ltd.
3.2 Experimental design: On the day of the experiment, the ICR mice were randomly grouped according to their body weights. The animals were fasted with water available for 12-14 h one day before the administration, and were fed 4 h after the administration. Table 3.1 Administration information
vehicle for intravenous administration: 5% DMA + 5% Solutol + 90% Saline; vehicle for intragastric administration: 0.5% MC
Before and after administration, 0.06 mL of blood was taken from the orbit under isoflurane anaesthesia and placed in an EDTAK2 centrifuge tube. The tube was centrifuged at 5000 rpm at 4°C for 10 min, and plasma was collected. The blood sampling time points for both the intravenous administration group and intragastric administration group were 0 min, 5 min, 15 min, 30 min, 1 h, 2 h, 4 h, 7 h, 24 h, and 48 h. Before analysis and detection, all samples were stored at -80°C, and the samples were quantitatively analysed by LC-MS/MS. Table 3.2 Pharmacokinetic parameters of test compounds in plasma of mice

Data set [2] addresses T1, BRAFV600E (Homo sapiens, UniProt P15056, V600E).
T1 construct: purchased ABCAM ab204154
The experiment in a line: BRAFV600E enzyme activity test (ADP-Glo, MEK1K97R substrate). It is filed as biochemical. Conditions: Inhibitory activities of compounds on BRAFV600E. As for the experimental part: BRAFV600E (ABCAM, ab204154) and MEK1K97R (USBio, M2865-06J) proteins were diluted at an appropriate dilution factor using 1×Assay buffer (PH = 7.4 Tris-HCl buffer, supplemented with 10 mM MgCl2) such that the final concentration of BRAFV600E was 10 ng/µL and the final concentration of substrate MEK1K97R was 1 µM. 1 µL of BRAFV600E, 1 µL of compound serial dilution (final concentration starting from 2 µM, 5-fold dilution, 8 concentrations), and 6 µL of Assay buffer were pipetted to a 384-well reaction plate with a capacity of 20 µL. The plate was pre-incubated in a constant temperature incubator at 37°C for 30 min. 1 µL of 200 µM ATP and 1 µM MEK1 K97R were added to the reaction wells corresponding to the compound incubation, and mixed evenly by shaking, and preincubation was performed in a constant temperature incubator at 37°C for 60 min for enzymatic reaction. After the reaction was completed, 5 µL of the above reaction product was pipetted to another 384-well plate, and 5 µL of formulated ADP-Glo™ Reagent (Promega, V9101) was added and mixed evenly by pipetting, and then the plate was placed at room temperature for 40 min. 10 µL Kinase Detection Reagent was added to the 384-well plate and incubated at room temperature for 40 min. Finally, a microplate reader (BMG LRBTECH) was used and Luminescence module was selected to detect the LUM fluorescence value of each well (the gain value was fixed at 3600), and the formula Inhibition rate% = (1−(LUM Compound−LUM Background)/(LUM Solvent−LUM Background))∗100% [formula] was used to calculate the inhibition rate of the compound on BRAFV600E. The Graphpad software log(inhibitor) vs. response -- Variable slope (four parameters) equation was used to perform fitting analysis and calculate the IC50value of the sample.
(ADP-Glo first removes unused ATP, then detects ADP through luciferase.)

Data set [3] in a line: Liver microsomal stability test (monkey liver microsomal model). It is filed as in vitro ADME. Conditions: monkey liver microsomes, 1 µM test compound, NADPH, 37°C. As for the experimental part:
In this experiment, liver microsomes of five species, including human, monkey, dog, rat and mouse, were used as in vitro models to evaluate the metabolic stability of the test compound.
At 37°C, 1 µM of the test compound was co-incubated with microsomal protein and coenzyme NADPH. At given time points of the reaction (5 min, 10 min, 20 min, 30 min, and 60 min), the reaction was terminated by adding ice-cold acetonitrile containing an internal standard. The LC-MS/MS method was used to measure the concentration of the test compound in the sample. T1/2 was calculated using the ln value of the percentage of drug remaining in the incubation system and the incubation time. In addition, the intrinsic clearance in liver microsomes CLint(mic) and the intrinsic clearance in liver CLint(Liver) were further calculated. Table 6 Results of test compounds in monkey liver microsomal model

The nature of data set [4]: Pharmacokinetic test in mice. It is filed as in vivo, ICR mice. Conditions: i.g. (10 mg/kg), relative to Control compound 1.
Data set [5] is described as follows: Pharmacokinetic test in rats. It counts as in vivo, SD rats. Conditions: rat, plasma; for Vd: read-out: Vdss. Here is the method: 5.1 Experimental animals: Male SD rats, about 220 g, 6-8 weeks old, 6 rats/compound, purchased from Chengdu Dossy Experimental Animals Co., Ltd.
5.2 Experimental design: On the day of the experiment, the SD rats were randomly grouped according to their body weights. The animals were fasted with water available for 12-14 h one day before the administration, and were fed 4 h after the administration.
5.3 Test compounds: compounds in the examples and control compounds. Table 5.1 Administration information
Before and after administration, 0.1 ml of blood was taken from the orbit under isoflurane anaesthesia and placed in an EDTAK2 centrifuge tube. The tube was centrifuged at 5000 rpm at 4°C for 10 min, and plasma was collected. Blood sampling time points for the intravenous administration group: 0 min, 5 min, 15 min, 30 min, 1 h, 2 h, 4 h, 6 h, 8 h, 24 h, and 48 h; blood sampling time points for the intragastric administration group: 0 min, 5 min, 15 min, 30 min, 1 h, 2 h, 4 h, 6 h, 8 h, 24 h, and 48 h. Before analysis and detection, all samples were stored at -80°C, and the samples were quantitatively analysed by LC-MS/MS. Table 5.2 Pharmacokinetic parameters of test compounds in plasma of rats

Data set [6] deals with A375 cells. Kind of data set: A375 cell proliferation inhibition test. Conditions: Homo sapiens, A-375, 72 h. It counts as cell-based. As for the experimental part: A375 cells (ATCC, CRL-1619) were cultured in DMEM complete medium (+10% FBS) in a CO2 incubator at 37°C for 48 h. The cells were trypsinised and counted, and then the density was adjusted to 1.67 × 10^4 cells/mL. 90 µL (1500 cells) of cells were inoculated into each well of a 96-well transparent bottom plate, and the plate was transferred to a CO2 incubator and the cells were cultured at 37°C overnight. After the cells were incubated overnight, 10 µL of the diluted compound (final concentration starting from 10 µM, 3-fold dilution, 11 concentrations) was added to each well using a multi-channel pipette. The […] control was a serum-free medium containing DMSO. After mixing evenly, the cells were placed in a CO2 incubator at 37°C for 72 h. After the incubation, the CellCounting-Lite®2.0 kit detection solution (Vazyme, DD1101-03) was taken out and returned to room temperature. 100 µL of CellCounting-Lite2.0 detection solution was added to each well, the plate was sealed with a sealing film, and the plate was placed on a shaker for shaking for 15 min (the whole process should be kept away from light). The Luminescence module of the microplate reader (BMG LRBTECH) was used to detect the fluorescence signal value LUM of each well. The formula Inhibition rate% = ((LUM Solvent−LUM Compound)/(LUM Solvent))∗100% [formula] was used to calculate the inhibition rate of the compound. The Graphpad software log(inhibitor) vs. response -- Variable slope (four parameters) equation was used to perform fitting analysis and calculate the IC50value of the sample. The ordinate of the data is the percentage of inhibition rate, and the abscissa is the logarithm of the sample concentration (Log10).

The target of data set [7] is T2, BCRP (Homo sapiens, UniProt Q9UNQ0).
T2 sequence (Q9UNQ0 1-655): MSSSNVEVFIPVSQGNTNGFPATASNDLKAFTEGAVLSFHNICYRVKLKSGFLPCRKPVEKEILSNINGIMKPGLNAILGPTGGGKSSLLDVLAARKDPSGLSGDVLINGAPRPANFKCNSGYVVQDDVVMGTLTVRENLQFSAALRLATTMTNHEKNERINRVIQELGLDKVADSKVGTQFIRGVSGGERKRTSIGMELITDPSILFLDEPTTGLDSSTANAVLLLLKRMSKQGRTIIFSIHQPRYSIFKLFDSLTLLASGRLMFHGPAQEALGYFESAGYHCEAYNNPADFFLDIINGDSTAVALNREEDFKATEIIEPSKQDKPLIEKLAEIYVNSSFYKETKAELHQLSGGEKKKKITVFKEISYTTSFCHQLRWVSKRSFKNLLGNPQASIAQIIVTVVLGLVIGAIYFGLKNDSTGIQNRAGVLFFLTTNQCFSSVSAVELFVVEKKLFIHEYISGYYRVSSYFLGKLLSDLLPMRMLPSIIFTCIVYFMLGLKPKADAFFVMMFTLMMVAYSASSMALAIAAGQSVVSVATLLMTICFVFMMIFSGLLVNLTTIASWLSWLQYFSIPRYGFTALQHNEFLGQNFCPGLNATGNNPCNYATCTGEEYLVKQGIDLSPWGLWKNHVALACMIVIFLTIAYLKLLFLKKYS
The note with it: reported in the background; cited from earlier work.

The target in data set [8] is MDR1 (Homo sapiens, UniProt P08183). Conditions: reported in the background; cited from earlier work.
Sequence of MDR1 (P08183 whole entry, species assumed): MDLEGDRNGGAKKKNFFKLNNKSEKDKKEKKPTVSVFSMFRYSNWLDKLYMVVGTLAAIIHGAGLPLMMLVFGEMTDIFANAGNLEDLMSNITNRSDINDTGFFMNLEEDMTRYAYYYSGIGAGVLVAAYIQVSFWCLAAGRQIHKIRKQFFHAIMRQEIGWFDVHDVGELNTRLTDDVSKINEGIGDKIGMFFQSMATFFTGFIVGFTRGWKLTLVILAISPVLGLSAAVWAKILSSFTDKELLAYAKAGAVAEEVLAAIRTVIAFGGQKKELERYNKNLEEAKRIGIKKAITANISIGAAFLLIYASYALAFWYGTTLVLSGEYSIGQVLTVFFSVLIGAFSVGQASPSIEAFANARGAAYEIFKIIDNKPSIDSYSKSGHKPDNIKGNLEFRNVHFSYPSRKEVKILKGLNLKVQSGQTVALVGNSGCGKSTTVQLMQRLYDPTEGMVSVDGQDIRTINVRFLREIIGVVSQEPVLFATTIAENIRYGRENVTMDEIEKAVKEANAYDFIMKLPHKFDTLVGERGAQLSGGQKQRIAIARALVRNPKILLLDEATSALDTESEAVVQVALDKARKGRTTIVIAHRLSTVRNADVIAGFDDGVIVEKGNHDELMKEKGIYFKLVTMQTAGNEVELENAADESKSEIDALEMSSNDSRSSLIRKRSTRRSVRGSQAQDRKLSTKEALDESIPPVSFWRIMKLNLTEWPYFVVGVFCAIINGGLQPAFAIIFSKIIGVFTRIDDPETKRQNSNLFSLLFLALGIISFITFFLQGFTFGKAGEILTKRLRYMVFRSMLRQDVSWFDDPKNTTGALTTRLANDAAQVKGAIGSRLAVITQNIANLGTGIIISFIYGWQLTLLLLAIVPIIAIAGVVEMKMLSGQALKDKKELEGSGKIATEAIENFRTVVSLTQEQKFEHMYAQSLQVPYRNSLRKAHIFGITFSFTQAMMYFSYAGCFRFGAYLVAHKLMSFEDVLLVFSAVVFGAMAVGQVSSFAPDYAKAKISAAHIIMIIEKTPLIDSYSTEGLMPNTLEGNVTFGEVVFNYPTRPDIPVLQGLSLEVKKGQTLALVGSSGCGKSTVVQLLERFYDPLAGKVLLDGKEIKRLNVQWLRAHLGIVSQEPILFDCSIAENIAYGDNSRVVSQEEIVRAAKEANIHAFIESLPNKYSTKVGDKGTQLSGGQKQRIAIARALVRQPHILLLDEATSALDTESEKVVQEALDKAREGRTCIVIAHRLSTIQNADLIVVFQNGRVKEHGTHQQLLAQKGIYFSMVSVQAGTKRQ
The conditions of data set [9]: reported in the background; cited from earlier work.
Setting [10] is: A375 cells, values in text, read-out: IC50.
[11] abbreviates: Inhibitory activities of compounds on A375 cells, read-out: IC50/nM.

Like-named read-outs stand apart in the source and are kept apart here.

T1 sequence (P15056 416-766 V600E limits assumed): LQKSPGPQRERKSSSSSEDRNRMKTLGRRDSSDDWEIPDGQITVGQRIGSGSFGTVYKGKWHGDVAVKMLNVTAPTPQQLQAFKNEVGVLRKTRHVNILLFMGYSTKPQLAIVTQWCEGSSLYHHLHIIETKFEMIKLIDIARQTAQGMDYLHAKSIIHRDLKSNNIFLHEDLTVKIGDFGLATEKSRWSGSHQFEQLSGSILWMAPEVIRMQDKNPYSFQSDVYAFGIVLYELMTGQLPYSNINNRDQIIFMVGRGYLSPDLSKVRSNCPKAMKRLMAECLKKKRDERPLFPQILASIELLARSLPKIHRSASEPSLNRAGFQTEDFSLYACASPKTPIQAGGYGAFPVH

Usually AUC(0-t) stands for the area under the concentration-time curve up to a stated or last time point. One may read the clearance as the rate of elimination divided by the concentration. For orientation: half-life means how long it takes for the measured level to halve. By bioavailability is commonly meant the share of a dose that reaches the circulation, judged against a reference dose that is usually intravenous. As to `C=C1CN(S(=O)(=O)Nc2ccc(F)c(Oc3ccc4ncn(CC(F)F)c(=O)c4c3)c2C#N)C1` [Compound 3], the AUC(0-t) in data set [1] (iv, i.v. (2.5 mg/kg)) turned out to be 225 µg·h/mL; in data set [1] (po, i.g. (10 mg/kg)), 762 µg·h/mL; in [5] (iv, i.v. (2.5 mg/kg)) it was 41 µg·h/mL; in data set [5] (po, i.g. (10 mg/kg)) it was 1030 µg·h/mL. The clearance in data set [1] (iv, i.v. (2.5 mg/kg)) turned out to be 0.186 mL/min/kg; in data set [5] (iv, i.v. (2.5 mg/kg)), 0.091 mL/min/kg. The half-life in data set [1] (iv, i.v. (2.5 mg/kg)) is 8.68 h; in data set [1] (po, i.g. (10 mg/kg)), 10.3 h; in [5] (iv, i.v. (2.5 mg/kg)) it was 19.1 h; in data set [5] (po, i.g. (10 mg/kg)), 13.9 h. The Vd in data set [1] (iv, i.v. (2.5 mg/kg)) came out at 0.112 L/kg; in data set [5] (iv, i.v. (2.5 mg/kg)), 0.126 L/kg. For the same molecule, the bioavailability amounted to 84.5% in data set [1] (po, i.g. (10 mg/kg)) and 62.8% in data set [5] (po, i.g. (10 mg/kg)). Also, the IC50 was at most 10 nM in data set [2], 0.14 nM in data set [6] (setting [10]) and at most 10 nM in data set [6] (setting [11]). The “Percentage of drug remaining after 60 min of incubation” value in data set [3] was found to be 56.1%. Moreover, the “Fold change in brain-blood ratio relative to control compound” value in [4] is given as 10.8.
Take `CC=C1CN(S(=O)(=O)Nc2ccc(F)c(Oc3ccc4ncn(CC(F)F)c(=O)c4c3)c2C#N)C1` [Compound 7]: the exposure AUC(0-t) in data set [1] (iv, i.v. (2.5 mg/kg)) turned out to be 228 µg·h/mL; in data set [1] (po, i.g. (10 mg/kg)), 825 µg·h/mL; in data set [5] (iv, i.v. (2.5 mg/kg)), 376 µg·h/mL; in data set [5] (po, i.g. (10 mg/kg)), 1220 µg·h/mL. The clearance in data set [1] (iv, i.v. (2.5 mg/kg)) is 0.171 mL/min/kg; in [5] (iv, i.v. (2.5 mg/kg)), 0.109 mL/min/kg. For the same molecule, the half-life in data set [1] (iv, i.v. (2.5 mg/kg)) is 12.8 h; in data set [1] (po, i.g. (10 mg/kg)), 10.7 h; in [5] (iv, i.v. (2.5 mg/kg)), 14.2 h; in data set [5] (po, i.g. (10 mg/kg)), 13.5 h. Further, the Vd stood at 0.156 L/kg in [1] (iv, i.v. (2.5 mg/kg)) and 0.096 L/kg in data set [5] (iv, i.v. (2.5 mg/kg)). For the same molecule, the bioavailability in data set [1] (po, i.g. (10 mg/kg)) is 90.6%; in [5] (po, i.g. (10 mg/kg)) it was 81.3%. The results for the IC50 in data set [2], in data set [6] (setting [10]) and in data set [6] (setting [11]) were at most 10 nM, 0.66 nM and at most 10 nM, respectively. The “Percentage of drug remaining after 60 min of incubation” value in data set [3] came out at 48.2%. For the same molecule, the “Fold change in brain-blood ratio relative to control compound” value in [4] worked out at 10.5.
In the case of `CC(C)(C)c1nc(-c2cccc(NS(=O)(=O)c3c(F)cccc3F)c2F)c(-c2ccnc(N)n2)s1` [dabrafenib], the BCRP efflux ratio in data set [7] is given as 21.0. Further, in data set [8], the MDR1 efflux ratio is 11.4. Further, the total brain-to-plasma ratio in [9] was 0.023.

The record behind these values is patent EP4813985A1, “PREPARATION OF QUINAZOLINONE DERIVATIVE AS KINASE INHIBITOR, AND USE THEREOF” (Xizang Haisco Pharmaceutical Co., Ltd., priority 2023, dated 2025).
